# Test results taken from patent US20250250230A1, “HETEROCYCLIC COMPOUND” (TAKEDA PHARMACEUTICAL COMPANY LIMITED, priority 2022, published 2025).
# Biological target: T1, human orexin type 2 receptor (Homo sapiens, UniProt O43614)
# T1 construct: expressed in transfected cells
# T1 sequence (O43614 1-444): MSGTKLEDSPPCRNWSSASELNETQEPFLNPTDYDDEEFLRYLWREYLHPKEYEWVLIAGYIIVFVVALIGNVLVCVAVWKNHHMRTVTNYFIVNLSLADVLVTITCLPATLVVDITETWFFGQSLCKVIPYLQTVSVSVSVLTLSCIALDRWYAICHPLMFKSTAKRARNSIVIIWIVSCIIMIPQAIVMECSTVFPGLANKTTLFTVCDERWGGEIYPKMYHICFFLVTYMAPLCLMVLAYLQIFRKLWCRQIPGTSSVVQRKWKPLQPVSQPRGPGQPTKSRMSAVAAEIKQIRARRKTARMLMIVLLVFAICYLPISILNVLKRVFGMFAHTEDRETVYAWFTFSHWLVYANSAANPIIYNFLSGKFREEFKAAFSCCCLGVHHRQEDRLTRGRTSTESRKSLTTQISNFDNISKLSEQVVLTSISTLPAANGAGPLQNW
# Assay: Measurement of orexin type 2 receptor agonist activity (calcium fluorescence, Fluo-4 AM, FDSS)
# Assay type: cell-based
# Conditions: test compound 3 μM; CHO cells expressing human OX2 receptor; DMSO = 0%, orexin A (human) = 100%
# Text: To obtain a cell clone stably expressing human orexin type 2 receptor, human orexin type 2 receptor cDNA was inserted into pcDNA3.1(+) plasmid vector (Invitrogen), and a plasmid DNA for expression of human orexin type 2 receptor (pcDNA3.1(+)/hOX2R) was cloned. The plasmid DNA was introduced into CHO-K1 cell by an electroporation method, and human orexin type 2 receptor expressing clone cells were obtained by limiting dilution method by using G418 drug resistance as a selection marker.
# CHO cells forcibly expressing human OX2 receptor were seeded in each well of 384 well black transparent bottom plate (BD Falcon) at 10,000 cells/well, and cultured for one day in a 5% CO2 incubator at 37° C. After removal of the medium in the cell plate, assay buffer A containing a calcium indicator (HBSS (Thermo Fisher Scientific), 20 mM HEPES (Thermo Fisher Scientific), 0.1% BSA (Sigma-Aldrich), 2.5 μg/mL Fluo-4 AM (DOJINDO Chemical), 0.08% Pluronic F127 (DOJINDO Chemical), 1.25 mM probenecid (DOJINDO Chemical)) was added at 30 μL/well. The plate was stood for 30 min in a 5% CO2 incubator at 37° C., and further stood at room temperature for 30 min. A test compound prepared by diluting with assay buffer B (HBSS, 20 mM HEPES, 0.1% BSA) was added at 10 μL/well, and the fluorescence value was measured by FDSSμCELL (Hamamatsu Photonics K.K.) every one sec for 1 min, and thereafter every two sec for […]. The activity (%) of the test compound was calculated assuming that variation in the fluorescence value when DMSO was added instead of the test compound was 0%, and variation in the fluorescence value when orexin A (human) (PEPTIDE INSTITUTE, INC.) was added at the final concentration of 10 nM was 100%.
row,SMILES,"OX2R agonist activity (3 μM, %)"
1,"CCS(=O)(=O)N[C@H]1CCCN(C(=O)C2CC2c2ccccc2-c2c(F)cccc2F)C1 (stereo partly drawn) [Example 239, N-{(3S)-1-[(1R,2R)-2-(2′,6′-difluoro[1,1′-biphenyl]-2-yl)cyclopropane-1-carbonyl]piperidin-3-yl}ethanesulfonamide, or N-{(3S)-1-[(1S,2S)-2-(2′,6′-difluoro[1,1′-biphenyl]-2-cyclopropane-1-carbonyl]piperidin-3-yl}ethanesulfonamide]",97%
2,"O=C([C@@H]1C[C@H]1c1ccccc1-c1c(F)cccc1F)N1CC[C@H]1CNS(=O)(=O)N1CCC1 [Example 334, N-({(2S)-1-[(1R,2R)-2-(2′,6′-difluoro[1,1′-biphenyl]-2-yl)cyclopropane-1-carbonyl]azetidin-2-yl}methyl)azetidine-1-sulfonamide]",96%
3,"CC1(NS(C)(=O)=O)CCCN(C(=O)[C@@H]2C[C@H]2c2ccccc2-c2c(F)cccc2F)C1 (mixture of isomers) [Example 310, a mixture of N-{(3R)-1-[(1R,2R)-2-(2′,6′-difluoro[1,1′-biphenyl]-2-yl)cyclopropane-1-carbonyl]-3-methylpiperidin-3-yl}methanesulfonamide and N-{(3S)-1-[(1R,2R)-2-(2′,6′-difluoro[1,1′-biphenyl]-2-yl)cyclopropane-1-carbonyl]-3-methylpiperidin-3-yl}methanesulfonamide]",100%
4,"CS(=O)(=O)N[C@@H]1CN(C(=O)[C@@H]2C[C@@]2(F)c2ccccc2-c2c(F)cccc2F)CC[C@H]1O [Example 348, N-{(3R,4R)-1-[(1S,2S)-2-(2′,6′-difluoro[1,1′-biphenyl]-2-yl)-2-fluorocyclopropane-1-carbonyl]-4-hydroxypiperidin-3-yl}methanesulfonamide]",97%
5,"CS(=O)(=O)NC1CCC2CN(C(=O)[C@@H]3C[C@H]3c3ccccc3-c3c(F)cccc3F)CC21F (stereo partly drawn) [Example 340, N-{(3aR,4R,6aS)-2-[(1R,2R)-2-(2′,6′-difluoro[1,1′-biphenyl]-2-yl)cyclopropane-1-carbonyl]-3a-fluorooctahydrocyclopenta[c]pyrrol-4-yl}methanesulfonamide, or N-{(3aS,4S,6aR)-2-[(1R,2R)-2-(2′,6′-difluoro[1,1′-biphenyl]-2-yl)cyclopropane-1-carbonyl]-3a-fluorooctahydrocyclopenta[c]pyrrol-4-yl}methanesulfonamide]",94%
6,"CNS(=O)(=O)NC[C@@H]1CCN1C(=O)[C@@H]1C[C@H]1c1ccccc1-c1c(F)cccc1F [Example 339, N-({(2S)-1-[(1R,2R)-2-(2′,6′-difluoro[1,1′-biphenyl]-2-yl)cyclopropane-1-carbonyl]azetidin-2-yl}methyl)-N′-methylsulfuric diamide]",103%
7,"C[C@H]1C[C@H](NS(=O)(=O)N(C)C)CN1C(=O)[C@@H]1C[C@H]1c1ccccc1-c1c(F)cccc1F [Example 281, N′-{(3S,5S)-1-[(1R,2R)-2-(2′,6′-difluoro[1,1′-biphenyl]-2-yl)cyclopropane-1-carbonyl]-5-methylpyrrolidin-3-yl}-N,N-dimethylsulfuric diamide]",96%
8,CCS(=O)(=O)NC1COCCN(C(=O)[C@@H]2C[C@H]2c2ccccc2-c2c(F)cccc2F)C1 (mixture of isomers) [Example 257],98%
9,"Cc1ccccc1-c1ccccc1C1CC1C(=O)N1CCCC(NS(C)(=O)=O)CC1 (racemic) [Example 52, a mixture of rac-N-{(4R)-1-[(1R,2R)-2-(2′-methyl[1,1′-biphenyl]-2-yl)cyclopropane-1-carbonyl]azepan-4-yl}methanesulfonamide and rac-N-{(4S)-1-[(1R,2R)-2-(2′-methyl[1,1′-biphenyl]-2-yl)cyclopropane-1-carbonyl]azepan-4-yl}methanesulfonamide]",65%
10,"CCS(=O)(=O)NC[C@@H]1[C@H](C)CN1C(=O)[C@@H]1C[C@@]1(F)c1ccccc1-c1c(F)cccc1F [Example 360, N-({(2S,3R)-1-[(1S,2S)-2-(2′,6′-difluoro[1,1′-biphenyl]-2-yl)-2-fluorocyclopropane-1-carbonyl]-3-methylazetidin-2-yl}methyl)ethanesulfonamide]",103%
11,"CS(=O)(=O)N[C@@H]1CN(C(=O)[C@@H]2C[C@H]2c2ccccc2-c2c(F)cccc2F)CC[C@@H]1O [Example 270, N-{(3R,4S)-1-[(1R,2R)-2-(2′,6′-difluoro[1,1′-biphenyl]-2-yl)cyclopropane-1-carbonyl]-4-hydroxypiperidin-3-yl}methanesulfonamide]",64%
12,CC1CCN(C(=O)C2CC2c2ccccc2-c2c(F)cccc2F)CCC1NS(C)(=O)=O (racemic) [Example 186],101%
13,"CS(=O)(=O)N[C@H]1CCN(C(=O)C2C(c3ccccc3-c3c(F)cccc3F)C2(F)F)C1 (mixture of isomers) [Example 320, a mixture of N-{(3S)-1-[(1R,2R)-2-(2′,6′-difluoro[1,1′-biphenyl]-2-yl)-2,2-difluorocyclopropane-1-carbonyl]pyrrolidin-3-yl}methanesulfonamide and N-{(3S)-1-[(1S,3S)-3-(2′,6′-difluoro[1,1′-biphenyl]-2-yl)-2,2-difluorocyclopropane-1-carbonyl]pyrrolidin-3-yl}methanesulfonamide]",101%
14,"CS(=O)(=O)NC1COCCN(C(=O)C2CC2c2ccccc2-c2c(F)cccc2F)C1 (racemic) [Example 219, a mixture of rac-N-{(6R)-1-[(1R,2R)-2-(2′,6′-difluoro[1,1′-biphenyl]-2-yl)cyclopropane-1-carbonyl]-1,4-oxazepan-6-yl}methanesulfonamide and rac-N-{(6S)-4-[(1R,2R)-2-(2′,6′-difluoro[1,1′-biphenyl]-2-yl)cyclopropane-1-carbonyl]-1,4-oxazepan-6-yl}methanesulfonamide]",96%
15,"CS(=O)(=O)N[C@H]1CCCN(C(=O)[C@@H]2C[C@H]2c2ccccc2-c2c(F)cccc2F)CC1 [Example 25, N-{(4S)-1-[(1R,2R)-2-(2′,6′-difluoro[1,1′-biphenyl]-2-yl)cyclopropane-1-carbonyl]azepan-4-yl}methanesulfonamide]",93%
16,"CC1(C(=O)N2CCCC[C@H](NS(C)(=O)=O)C2)CC1c1ccccc1-c1c(F)cccc1F (stereo partly drawn) [Example 274, N-{(3S)-1-[(1R,2S)-2-(2′,6′-difluoro[1,1′-biphenyl]-2-yl)-1-methylcyclopropane-1-carbonyl]azepan-3-yl}methanesulfonamide, or N-{(3S)-1-[(1S,2R)-2-(2′,6′-difluoro[1,1′-biphenyl]-2-yl)-1-methylcyclopropane-1-carbonyl]azepan-3-yl}methanesulfonamide]",86%
17,"C[C@H]1CN(C(=O)[C@@H]2C[C@H]2c2ccccc2-c2c(F)cccc2F)C[C@H]1NS(C)(=O)=O [Example 265, N-{(3S,4S)-1-[(1R,2R)-2-(2′,6′-difluoro[1,1′-biphenyl]-2-yl)cyclopropane-1-carbonyl]-4-methylpyrrolidin-3-yl}methanesulfonamide]",86%
18,"O=C([C@@H]1C[C@H]1c1ccccc1-c1c(F)cccc1F)N1CC[C@H](NS(=O)(=O)N2CCC2)C1 [Example 326, N-{(3S)-1-[(1R,2R)-2-(2′,6′-difluoro[1,1′-biphenyl]-2-yl)cyclopropane-1-carbonyl]pyrrolidin-3-yl}azetidine-1-sulfonamide]",89%
19,"CC1(C(=O)N2CC(NS(C)(=O)=O)C(F)(F)C2)CC1c1ccccc1-c1c(F)cccc1F (stereo not drawn) [Example 248, N-{1-[2-(2′,6′-difluoro[1,1′-biphenyl]-2-yl)-1-methylcyclopropane-1-carbonyl]-4,4-difluoropyrrolidin-3-yl}methanesulfonamide optical isomer]",98%
